# Data published in paper PMC4438233, “Antibacterial effects of Traditional Chinese Medicine monomers against Streptococcus pneumoniae via inhibiting pneumococcal histidine kinase (VicK)” (Frontiers in Microbiology, 2015).
# Several values for one entry are separate records, joined by “and”; a condition that tells them apart may be missing. Equal entries are not always repeated. Where two headings read alike, the source gives them in different places. Marks after values point to notes of the source that are not given here.
# How the values were obtained:
# full-length VicK protein = target: T1, full-length VicK protein (Streptococcus pneumoniae, UniProt Q8DPL8); assay: Inhibition assay for ATPase activity of VicK (Kinase-Glo Luminescent Kinase Assay); type: biochemical; settings: 6 μg VicK, 5 μM ATP
# T1 construct: 6 His; made in house
# Procedure: The inhibitory activities of the Chinese medicine monomers for the ATPase activity of the full-length VicK protein were evaluated using the Kinase-Glo™Luminescent Kinase Assay (Promega, Madison, USA). Briefly, 6 μg VicK protein was pre-incubated with a series of dilution of compounds in the reaction buffer at 37°C for 30 min. 5 μM ATP was added and incubated for another 30 min. Kinase-Glo™Reagent was also added to detect the remaining ATP recorded from luminescence measurements (RLU). In parallel, the VicK protein with no addition of compounds was used as a control, and the mixture with compounds excluding the VicK protein served as another control. The rate of protein phosphorylation (Rp) inhibition by the compounds was calculated from Equation (1).
# (1) Rp=1−RLU(compound+ATP+Reagent) −RLU(compound+ATP+vick+Reagent)/RLU(ATP +Reagent)−RLU(ATP+vick+Reagent)×100%
# The half maximal inhibitory concentration (IC50), which is the concentration of inhibition of 50% VicK protein autophosphorylation, was determined by GraphPad Prism 5 (Qin et al., [2006]).
# S. pneumoniae NCTC7466 [1] = assay: MIC against S. pneumoniae NCTC7466 (D39); type: cell-based; settings: Streptococcus pneumoniae
# Procedure: (§1) Minimum inhibitory concentration (MIC) assays for the antibacterial activities of the compounds were performed according to the standard […] method of the Clinical and Laboratory Standards Institute of America. MIC testing of drug-resistant S. pneumoniae, drug-resistant S. aureus, streptococci and antimicrobial combination was also performed using the same method. Briefly, the drugs were serially diluted 2-fold into eight wells with C+Y medium, yielding final concentrations ranging from […]. Then 10^6 CFU bacteria were added to each well. Inoculated medium containing 1% DMSO served as a bacterial growth control, whereas uninoculated medium served as a sterility control. The plates were incubated at 37°C for 12–16 h. […] The experiment was repeated three times.
# pneumococcal strains = assay: MIC against clinical pneumococcal strains (penicillin susceptible, intermediate, resistant); type: cell-based, Streptococcus pneumoniae; settings: for MIC50 / MIC90: Streptococcus pneumoniae
# Procedure: as §1
# S. mutans = assay: MIC against S. mutans; type: cell-based; settings: Streptococcus mutans
# Procedure: as §1
# S. pseudopneumoniae = assay: MIC against S. pseudopneumoniae; type: cell-based; settings: Streptococcus pseudopneumoniae
# Procedure: as §1
# [2] = test system: Methicillin resistant S. aureus; assay: MIC against methicillin resistant S. aureus; type: cell-based; settings: Staphylococcus aureus
# Procedure: as §1
# S. pneumoniae NCTC7466 [3] = assay: Mouse sepsis model, survival time; type: in vivo, BALB/c mice; settings: i.p. infection 1 × 10^3 CFU; drug i.p. thrice a day for 3 d; untreated control 28.8 ± 1.25
# Procedure: Female BALB/c mice (12–15 per group) aged 4–6 weeks were used to evaluate the antimicrobial effects of the compounds in vivo. In sepsis models, the mice were intraperitoneally infected with 100 μL S. pneumoniae NCTC7466 strain suspension (1 × 10^3 CFU). […] Two control groups were injected with 100 μL 1% DMSO (dissolved the drugs, negative control) or PEN (0.42 mg/kg/d, positive control) following the same injection route. The result was expressed as cumulative survival times following 7 d of observation.
# [4] = test system: Penicillin-resistant S. pneumoniae strains; assay: Checkerboard test with penicillin against penicillin-resistant S. pneumoniae; type: cell-based, Streptococcus pneumoniae; settings: Streptococcus pneumoniae, agent alone
# Procedure: as §1
# (§2) The antimicrobial effects of different combinations of two antimicrobial agents were assayed using the checkerboard test (Bajaksouzian et al., [1997]). Each experiment was repeated thrice. The in vitro interaction between the five drugs with PEN was quantified by the fractional inhibitory concentration (FIC). The FIC index (FICI) was calculated using the following formula:
# (§3) (2) FIC=FICA+FICB=[A]/MICA+[B]/MICB
# (§4) where [A] and [B] are the concentrations of drugs A and B, respectively; MICA and FICA are the MIC and FIC of drug A for the organism, respectively; and MICB, and FICB are the MIC and FIC of drug B for the organism, respectively. The FIC index obtained was interpreted as follows: =0.5, synergy; FIC > 2.0, antagonism (Gupta and Kohli, [2003]).
# S. aureus = assay: Checkerboard test with penicillin against S. aureus; type: cell-based, Staphylococcus aureus; settings: for MIC: Staphylococcus aureus; for reduction of MIC in combination with PEN: four strains of MRSA
# Procedure: as §1, §2, §3, §4
# S. pneumoniae = assay: Checkerboard test with erythromycin or tetracycline against S. pneumoniae; type: cell-based, Streptococcus pneumoniae
# Procedure: The antimicrobial effects of different combinations of two antimicrobial agents were assayed using the checkerboard test (Bajaksouzian et al., [1997]). Each experiment was repeated thrice. […] The FIC index (FICI) was calculated using the following formula:
# as §3, §4
# [5] = test system: clinical S. pneumoniae 19A (CMCC31689); assay: Mouse colonization model, serotype 19A; type: in vivo, BALB/c mice; settings: for Mean log CFU at site of infection: 19A; for reduction of 19A bacterial numbers: at 24 h
# Procedure: In colonization models, the mice were intranasally challenged by 20 μL of clinical drug-resistant strains (pneumococcal serotype 19F or 19A, 1.5 × 10^8 CFU). An hour later, the mice were intraperitoneally injected with 100 μL drugs (2 × MIC) alone or in combination with PEN (2 × MIC). These injections were continued thrice a day for 3 d. Nasal wash and lung tissues were obtained to analyze the bacteria load at 24, 48, and 72 h after drug infection. Then 100 μL aliquots of the samples diluted were plated on blood agar plates. The colonies were counted after incubation overnight at 37°C with 5% CO2.
# [6] = Penicillin intermediate (n = 12)
# [7] = in combination with Erythromycin
# [8] = in combination with Tetracycline
# [9] = NW (nasal wash), 24 h, i.p. three times a day for 3 days, control 7.29
# T1 sequence (Q8DPL8 whole entry): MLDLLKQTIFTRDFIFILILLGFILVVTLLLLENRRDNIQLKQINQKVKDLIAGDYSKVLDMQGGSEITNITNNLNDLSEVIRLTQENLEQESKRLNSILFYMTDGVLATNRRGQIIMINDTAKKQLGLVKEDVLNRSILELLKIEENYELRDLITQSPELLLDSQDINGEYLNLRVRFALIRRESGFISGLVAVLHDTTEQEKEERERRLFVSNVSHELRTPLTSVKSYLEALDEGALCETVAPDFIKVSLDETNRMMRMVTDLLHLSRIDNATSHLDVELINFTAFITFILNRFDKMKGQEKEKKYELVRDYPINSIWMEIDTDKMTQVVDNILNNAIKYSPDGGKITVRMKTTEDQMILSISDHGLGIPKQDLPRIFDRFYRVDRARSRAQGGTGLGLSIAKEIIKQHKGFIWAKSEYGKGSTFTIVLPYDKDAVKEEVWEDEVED
compound,measurement,setting,value
"CCCCCCCCCCCCOC(=O)c1cc(O)c(O)c(O)c1 [Compound 5, Dodecyl gallate]",IC50,full-length VicK protein; IC50 (inhibition of VicK ATPase activity / autophosphorylation),9.1 µM
same,IC50,"full-length VicK protein; IC50 (inhibition of VicK ATPase activity / autophosphorylation), value in parentheses",9.07 µM
same,MIC,"S. pneumoniae NCTC7466 [1]; S. pneumoniae NCTC7466 (D39), read-out: MIC",21 µg/mL
same,MIC,"S. pneumoniae NCTC7466 [1]; S. pneumoniae NCTC7466 (D39), value in parentheses, read-out: MIC",62 µM
same,"MIC of pneumococcal strains, Range",pneumococcal strains; [6],42 to 168 µg/mL
same,"MIC of pneumococcal strains, MIC50",pneumococcal strains; Penicillin resistant (n = 15),42 µg/mL
same,"MIC of pneumococcal strains, Range",pneumococcal strains; Penicillin resistant (n = 15),10.5 to 168.8 µg/mL
same,"MIC of pneumococcal strains, Range",pneumococcal strains; Penicillin susceptible (n = 7),21 to 168 µg/mL
same,MIC50,"pneumococcal strains; Penicillin intermediate (n = 12), read-out: MIC of pneumococcal strains, MIC50",84 µg/mL
same,MIC90,"pneumococcal strains; Penicillin intermediate (n = 12), read-out: MIC of pneumococcal strains, MIC90",168 µg/mL
same,MIC50,"pneumococcal strains; Penicillin resistant (n = 15), read-out: MIC of pneumococcal strains, MIC50",42 µg/mL
same,MIC90,"pneumococcal strains; Penicillin resistant (n = 15), read-out: MIC of pneumococcal strains, MIC90",169 µg/mL
same,MIC50,"pneumococcal strains; Penicillin susceptible (n = 7), read-out: MIC of pneumococcal strains, MIC50",42 µg/mL
same,MIC90,"pneumococcal strains; Penicillin susceptible (n = 7), read-out: MIC of pneumococcal strains, MIC90",42 µg/mL
same,MIC,"S. mutans; S. mutans clinical isolate, 10^6 CFU/ml, read-out: MIC",42 µg/mL
same,MIC,"S. pseudopneumoniae; S. pseudopneumoniae clinical isolate, 10^6 CFU/ml, read-out: MIC",42 µg/mL
same,MIC,"[2]; Methicillin resistant S. aureus (4 isolates), 10^6 CFU/ml, read-out: MIC",84.4 to 336 µg/mL
same,Mean survival of mice ± SEM,S. pneumoniae NCTC7466 [3],60.2 ± 7.3 h
same,MIC,"[4]; strain 652336, read-out: MIC, Alone",84.4 µg/mL
same,MIC,"[4]; strain 736007, read-out: MIC, Alone",337 µg/mL
same,MIC,"[4]; strain 8364981, read-out: MIC, Alone",168 µg/mL
same,MIC,"[4]; strain 12092624, read-out: MIC, Alone",84.4 µg/mL
same,MIC,"S. aureus; ATCC29213, S. aureus ATCC29213, agent alone, read-out: MIC, Alone",168 µg/mL
same,MIC,"S. aureus; MRSA8506305, agent alone, read-out: MIC, Alone",337 µg/mL
same,MIC,"S. aureus; MRSA8548991, agent alone, read-out: MIC, Alone",84.4 µg/mL
same,MIC,"S. aureus; MRSA, MRSA 8569082, agent alone, read-out: MIC, Alone",84.4 µg/mL
same,reduction of MIC in combination with PEN,S. aureus,2 fold
same,FICI,S. pneumoniae; [7],0.31
same,Outcome,S. pneumoniae; [7],"Synergy (=0.5, synergy)"
same,FICI,S. pneumoniae; [8],0.18
same,Outcome,S. pneumoniae; [8],"Synergy (=0.5, synergy)"
same,Mean log CFU at site of infection,"[5]; Lung, 24 h, control 4.85",1 log CFU
same,Mean log CFU at site of infection,"[5]; Lung, 48 h, control 6.12",3 log CFU
same,Mean log CFU at site of infection,"[5]; Lung, 72 h, control 6.29",2.82 log CFU
same,Mean log CFU at site of infection,[5]; [9],5.91 (0.021)^b log CFU
same,Mean log CFU at site of infection,"[5]; NW, 48 h, control 5.97",5.28 log CFU
same,Mean log CFU at site of infection,"[5]; NW, 72 h, control 6.01",3.62 (0.033)^b log CFU
same,reduction of 19A bacterial numbers,[5],two-log reduction
"CC(C)=CCCC1=CC(=O)c2c(O)ccc(O)c2C1=O [Compound 3, Deoxyshikonin]",IC50,full-length VicK protein; read-out: IC50 (inhibition of VicK ATPase activity / autophosphorylation) (converted),15.4 µM
same,IC50,"full-length VicK protein; value in parentheses, read-out: IC50 (inhibition of VicK ATPase activity / autophosphorylation) (converted)",15.4 µM
same,MIC,S. pneumoniae NCTC7466 [1]; NCTC7466,17 µg/mL and 62 µM
same,"MIC of pneumococcal strains, Range",pneumococcal strains; [6],34 to 196 µg/mL
same,"MIC of pneumococcal strains, MIC50",pneumococcal strains; Penicillin resistant (n = 15),17 µg/mL
same,"MIC of pneumococcal strains, Range",pneumococcal strains; Penicillin resistant (n = 15),8.5 to 136 µg/mL
same,"MIC of pneumococcal strains, Range",pneumococcal strains; Penicillin susceptible (n = 7),17 to 34 µg/mL
same,MIC50,"pneumococcal strains; read-out: MIC of pneumococcal strains, MIC50, Penicillin intermediate (n = 12)",68 µg/mL
same,MIC50,"pneumococcal strains; read-out: MIC of pneumococcal strains, MIC50, Penicillin resistant (n = 15)",17 µg/mL
same,MIC50,"pneumococcal strains; read-out: MIC of pneumococcal strains, MIC50, Penicillin susceptible (n = 7)",17 µg/mL
same,MIC90,"pneumococcal strains; read-out: MIC of pneumococcal strains, MIC90, Penicillin intermediate (n = 12)",196 µg/mL
same,MIC90,"pneumococcal strains; read-out: MIC of pneumococcal strains, MIC90, Penicillin resistant (n = 15)",68 µg/mL
same,MIC90,"pneumococcal strains; read-out: MIC of pneumococcal strains, MIC90, Penicillin susceptible (n = 7)",34 µg/mL
same,MIC,S. mutans,34 µg/mL
same,MIC,S. pseudopneumoniae,136 µg/mL
same,MIC,[2],34 to 68 µg/mL
same,Mean survival of mice ± SEM,S. pneumoniae NCTC7466 [3],50.6 ± 4.1 h
same,MIC,"[4]; read-out: MIC, Alone, strain 652336",136 µg/mL
same,MIC,"[4]; read-out: MIC, Alone, strain 736007",136 µg/mL
same,MIC,"[4]; read-out: MIC, Alone, strain 8364981",136 µg/mL
same,MIC,"[4]; read-out: MIC, Alone, strain 12092624",136 µg/mL
same,"MIC, Alone","S. aureus; MRSA8548991, agent alone",34 µg/mL
same,MIC,"S. aureus; ATCC29213, read-out: MIC, Alone",34 µg/mL
same,MIC,"S. aureus; MRSA, read-out: MIC, Alone",68 µg/mL
same,MIC,"S. aureus; read-out: MIC, Alone",34 µg/mL
same,reduction of MIC in combination with PEN,S. aureus,2 fold
same,FICI,S. pneumoniae; [7],0.37
same,Outcome,S. pneumoniae; [7],"Synergy (=0.5, synergy)"
same,FICI,S. pneumoniae; [8],0.125
same,Outcome,S. pneumoniae; [8],"Synergy (=0.5, synergy)"
same,Mean log CFU at site of infection,"[5]; Lung, 24 h, control 4.85",1 log CFU
same,Mean log CFU at site of infection,"[5]; Lung, 48 h, control 6.12",2.39 (0.0001)^b log CFU
same,Mean log CFU at site of infection,"[5]; Lung, 72 h, control 6.29",1.05 (0.04)^b log CFU
same,Mean log CFU at site of infection,[5]; [9],6.08 (0.026)^b log CFU
same,Mean log CFU at site of infection,"[5]; NW, 48 h, control 5.97",2.76 (0.005)^b log CFU
same,Mean log CFU at site of infection,"[5]; NW, 72 h, control 6.01",3 (0.011)^b log CFU
same,reduction of 19A bacterial numbers,[5],two-log reduction
